In patent US20080194922A1, “POTENTIATION FOR MEDICAL THERAPIES” (priority 2005, published 2008):

What was measured:
[1] = tested on: cat with multiple myeloma; test: Delta Correlation Function analysis of dexamethasone dose versus food intake, cat myeloma model; assay type: in vivo; details: for normalized DCF, food intake versus dexamethasone dose: 1 day off
Text: The inventive method was used to analyze changes from day to day. The data was digitized by substituting either +1 for positive change (dayn+i greater than dayn), 0 (zero) for no change, and −1 for negative change (dayn+i less than dayn). Digitizing the change magnifies small changes by giving small differences the same value as large differences. For example, a positive change is noted as +1 whether the change is 1 milligram or 10 grams.
The inventive method multiplied a digitized change in therapy element by the corresponding digitized change in correlation factor to produce a correlation product. Because the digitized changes are signed (+ or −), changes in the same direction (both positive or both negative) produce a positive product. Changes in opposite directions (one negative and one positive) produce a negative product. The inventive method then provided a rolling average of correlation products over fixed period of time. (A positive average indicates a positive correlation between dose and result.)
There is a phase or timing relationship that should be considered. FIG. 15, drawn to the same scale as FIG. 14, illustrates an eighteen day rolling average of correlation product with a one day offset for the change in food intake. That is, the food intake on dayn+i minus the food intake on dayn is multiplied by the dose on dayn minus the dose on dayn—i. In FIGS. 12-14, the product is the food intake on dayn minus the food intake on dayn—i multiplied by the dose on dayn minus the dose on dayn—i.
Because of the delayed effect of some therapies, the invention provides for an “offset,” or staggering, of the corresponding therapy elements and correlation factors that are multiplied to obtain the normalized Delta Correlation Function (DCF).
A method provided by the invention was used to optimize the dexamethasone regimen based on the correlation factor food intake (i.e., determined the dexamethasome regimen that produces an increase in food intake.) Again, the cat myeloma model was used. […] The normalized DCF was calculated based upon a 24 time point sample (Days 445 to 469) with various offsets.

[2] = tested on: cat with multiple myeloma; test: System Functions (linear regression of dexamethasone dose versus food intake) and test of dexamethasone regimens, cat myeloma model; assay type: in vivo
Text: Based on the foregoing analysis, 3 different dexamethasone regimens where designed and hypothesized systems functions were formulated for predicting the impact of a regimen on food intake. […] In general, the system functions are in the form of:
Predicted Food Intake Dayn (tsp)=(dexamethasone dose Dayn) (mg)×Factor Dayn (tsp/mg);
Predicted Food Intake Dayn+1 (tsp)=[(dexamethasone dose Dayn+1) (mg)×Factor Dayn+1 (tsp/mg)]+Predicted Food Intake Dayn;
Predicted Food Intake Dayn+2 (tsp)=[(dexamethasone dose Dayn+2) (mg)×Factor Dayn+2 (tsp/mg)]+Predicted Food Intake Dayn+1;
wherein “Dayn” is the first day of a three to six day dosing cycle and, if the dexamethasone dose is 0.00, this value is converted to 1.00. “Factor Dayn” is regimen specific and was determined by linear regression analysis of the correlation between dexamethasone dose and food intake performed separately for days 1, 2, and 3 of the cycle a given regimen. For example, all first day dexamethasone administrations were identified in the past data. Food intake for those days were compared to the food intake the day before and averaged, then divided by the dose of dexamethasone for each first day (((Food Intake Dayn (tsp)−Dayn−1 (tsp))/number of first days)/dexamethasone Dayn).
The system functions were used to predict the results with three dexarnethasone regimens. Regimen 1 employs a dosing schedule of 0.250 mg dexamethasone 2 days on and then 1 day off.

[3] = tested on: multiple myeloma in a cat; test: Narrow therapeutic band established by potentiating the therapy of multiple myeloma in a cat
[4] = thalidomide 1.6 mg, in combination with the other elements of the potentiating protocol

C[C@@H]1C[C@H]2[C@@H]3CCC4=CC(=O)C=C[C@]4(C)[C@@]3(F)[C@@H](O)C[C@]2(C)[C@@]1(O)C(=O)CO [dexamethasone]
normalized DCF, food intake versus dexamethasone dose ([1]; 0.175 mg/day, 2 days on, Days 445 to 469 (24 time points), same day basis (no offset)): −0.16 | normalized DCF, food intake versus dexamethasone dose ([1]; 0.175 mg/day, 2 days on, Days 445 to 469, 2 day offset): +0.37 | normalized DCF, food intake versus dexamethasone dose ([1]; 0.175 mg/day, 2 days on, Days 445 to 469, 3 day offset): −0.09 | normalized DCF, food intake versus dexamethasone dose ([1]; 0.175 mg/day, 2 days on, Days 445 to 469, food intake offset by 1 day): −0.21 | time required for the dexamethasone therapeutic effect to develop ([1]; 0.375 mg, 1 day on, 1 day off regimen): approximately 1 day | normalized DCF, food intake versus dexamethasone dose ([1]; 0.375 mg, 1 day on, Days 37 to 61, 1 day offset): +0.5 | normalized DCF, food intake versus dexamethasone dose ([1]; 0.375 mg, 1 day on, Days 37 to 61, same day): −0.52 | Factor Dayn of System Function (food intake per dexamethasone dose) ([2]; Regimen 1 (0.250 mg 2 days on, 1 day off), Dayn): −5.11 tsp/mg | Factor Dayn+1 of System Function ([2]; Regimen 1, Dayn+1): 8.57 tsp/mg | Factor Dayn+2 of System Function ([2]; Regimen 1, Dayn+2 (day off, dose 0.00 converted to 1.00)): 2.23 tsp/mg | food intake reached ([2]; Regimen 1: 0.250 mg dexamethasone 2 days on, 1 day off, physiologic limit): 15.5 tsp per day | Factor Dayn of System Function ([2]; Regimen 2 (0.250 mg 2 days on, then 1 day at 0.125 mg), Dayn): −5.11 tsp/mg | Factor Dayn+1 of System Function ([2]; Regimen 2, Dayn+1): 8.57 tsp/mg | Factor Dayn+2 of System Function ([2]; Regimen 2, Dayn+2 (0.125 mg)): −0.53 tsp/mg | Factor Dayn of System Function ([2]; Regimen 3 (0.125 mg every day, six day cycle), Dayn): −5.11 tsp/mg | Factor Dayn+1 of System Function ([2]; Regimen 3, Dayn+1): 8.57 tsp/mg | Factor Dayn+2 of System Function ([2]; Regimen 3, Dayn+2): −0.53 tsp/mg | Factor Dayn+3 of System Function ([2]; Regimen 3, Dayn+3): −0.10 tsp/mg | Factor Dayn+4 of System Function ([2]; Regimen 3, Dayn+4): 3.89 tsp/mg | Factor Dayn+5 of System Function ([2]; Regimen 3, Dayn+5): −1.72 tsp/mg | side effects at minimum dose ([3]; dexamethasone 0.125 mg (modulated 2 days on, 1 day off), in combination with the other elements of the protocol): without significant side effects | adverse side effects above end point of narrow band ([3]; dexamethasone doses above 0.162 mg, such as thromboses and peripheral neuropathy): increased

O=C1CCC(N2C(=O)c3ccccc3C2=O)C(=O)N1 (centres unmarked) [thalidomide]
side effects at minimum dose [3, 4]: without significant thalidomide side effects or resistance | therapeutic effect at minimum dose [3, 4]: controlled the disease | therapeutic effect above end point of narrow band ([3]; thalidomide doses above 1.8 mg): not increased | adverse side effects above end point of narrow band ([3]; thalidomide doses above 1.8 mg, such as peripheral neuropathy): increased
